The IC50 is the concentration at which inhibition is half-maximal. As usually defined, the Kd is a measure of binding affinity in units of concentration.

This note sets out measurements from ChEMBL document CHEMBL6182932, “Potent Cyclic Peptide Inhibitors Disrupt the FANCM-RMI Interaction” (J Med Chem, 2025).

A short description of series [1]: Displacement of 5-TAMRA-SRDLFSVTFDLGFCSPDSDD-NH2 from recombinant N-terminal 6His/SUMO-tagged RMI1/2 (unknown origin) extracted from Escherichia coli BL21 (DE3) cells incubated for 1 hrs by competitive fluorescence polarization assay. The conditions noted are these: for Activity: Homo sapiens. Set-up: species or system Homo sapiens. For orientation: Polarisation of emitted light reports the rotation of a fluorescent probe.

Series [2] in a line: Binding affinity to N-terminal 6His/Avi-tagged biotinylated RMI1/2 (unknown origin) extracted from Escherichia coli BL21 (DE3) cells assessed as dissociation constant by SPR analysis. Set-up: species or system Homo sapiens. In general terms: In SPR one partner is held on a chip, and binding of the other changes the refractive index at the surface.
A short description of series [3]: Proteolytic stability in Tris-HCl buffer at pH 7.8 assessed as alpha-chymotrypsin (unknown origin) mediated compound degradation at 20 uM incubated for 5 hrs by HPLC analysis. Type of series: ADME. The conditions noted are these: human, pH 7.8, 5 h.
Another series deals with U2OS. The series can be described thus: Disruption of FANCM-RMI1/2 protein-protein interaction in human U2OS cells assessed as reduction in FANCM pull down at 100 uM incubated for 4 hrs by co-immunoprecipitation based Western blot analysis. Type of series: cell-based. On the technique in general: Immunoblotting shows a protein as a band on a membrane.
The species entered for a further series is Homo sapiens. Nature of the series: Binding affinity to N-terminal 6His/Avi-tagged biotinylated RMI1/2 (unknown origin) extracted from Escherichia coli BL21 (DE3)cells by SPR analysis.

Active and inactive are the calls of the source. The rule behind the calls is not given here. Positions of bridges follow the written chain, without caps; N, C: chain ends. Residues, ends and D or L forms follow the SMILES beside them.

Turning to Ac-YSILFDKYASIPC-NH2, in series [1], the IC50 is greater than 5000 nM.

Turning to Ac-YSILFDKYYSIPC-NH2, in series [1], the IC50 is greater than 5000 nM. Same read-out and setting: the value for Ac-YSIAFDKYYSIPC-NH2 was 496 nM. As for `CC[C@H](C)[C@@H]1NC(=O)[C@H](CO)NC(=O)[C@H](Cc2ccc(O)cc2)NC(=O)CSC[C@@H](C(N)=O)NC(=O)[C@@H]2CCCN2C(=O)[C@H]([C@@H](C)CC)NC(=O)[C@H](CO)NC(=O)[C@H](Cc2ccc(O)cc2)NC(=O)[C@H](Cc2ccc(O)cc2)NC(=O)[C@H](CCCCN)NC(=O)[C@H](CC(=O)O)NC(=O)[C@H](Cc2ccccc2)NC(=O)[C@H](CC(C)C)NC1=O` ({CH2CO}-YSILFDKYYSIPC-NH2; thioether N-13), in series [2], the dissociation constant Kd stood at 2.5 nM. In addition, the Stability result in series [3] is listed as “Stable”. In addition, the result in the series with U2OS was Active. For the same compound, the IC50 in series [1] is 54 nM. Consider Ac-YAILFDKYYSIPC-NH2, for which, in series [1], the IC50 came to 115 nM. The same measure, in the same setting: the value for Ac-YSILFDKAYSIPC-NH2 was 338 nM. As to `CC[C@H](C)[C@@H]1NC(=O)[C@H](Cc2ccccc2)NC(=O)[C@H](CO)NC(=O)[C@H]([C@@H](C)CC)NC(=O)[C@H](Cc2ccc(O)cc2)NC(=O)[C@H](CC(=O)O)NC(=O)[C@@H]2CCCN2C(=O)[C@H](CCCCN)NC(=O)[C@H](CC(C)C)NC(=O)CSC[C@@H](C(N)=O)NC(=O)[C@H](Cc2ccc(O)cc2)NC(=O)[C@H](Cc2ccc(O)cc2)NC(=O)[C@H](CO)NC1=O` ({CH2CO}-LKPDYISFISYYC-NH2; thioether N-13), the outcome in series [1] was inactive. Consider Ac-ASILFDKYYSIPC-NH2, for which the IC50 in series [1] was 700 nM. As to `CC[C@H](C)[C@H](NC(=O)[C@H](CC(=O)O)NC(=O)[C@@H]1CSCC(=O)N[C@@H](Cc2ccc(O)cc2)C(=O)N[C@@H](Cc2ccc(O)cc2)C(=O)N[C@@H](CCCCN)C(=O)N2CCC[C@H]2C(=O)N[C@@H]([C@@H](C)O)C(=O)N1)C(=O)N[C@H](C(=O)N[C@@H](CC(C)C)C(=O)N[C@@H](Cc1ccccc1)C(=O)N[C@@H](Cc1c[nH]c2ccccc12)C(=O)N[C@@H](CO)C(N)=O)[C@@H](C)CC` ({CH2CO}-YYKPTCDIILFWS-NH2; thioether N-6), the outcome in the series listed under Homo sapiens was inactive. In addition, the concentration for half-maximal inhibition (IC50) in series [1] is greater than 5000 nM.

On to `CC[C@H](C)[C@H](NC(=O)[C@H](CO)NC(=O)[C@H](Cc1ccc(O)cc1)NC(=O)[C@H](Cc1ccc(O)cc1)NC(=O)[C@H](CCCCN)NC(=O)[C@H](CC(=O)O)NC(=O)[C@H](Cc1ccccc1)NC(=O)[C@H](CC(C)C)NC(=O)[C@H](C)NC(=O)[C@H](CO)NC(=O)[C@H](Cc1ccc(O)cc1)NC(C)=O)C(=O)N1CCC[C@H]1C(=O)N[C@H](CS)C(N)=O`, for which the IC50 in series [1] amounted to 4500 nM.

On to Ac-YSILFAKYYSIPC-NH2, for which the IC50 in series [1] worked out at 440 nM.

Take `CC[C@H](C)[C@@H]1NC(=O)[C@H](Cc2ccc(O)cc2)NC(=O)CSC[C@@H](C(=O)N[C@@H](CC(C)C)C(=O)N[C@@H](Cc2c[nH]c3ccccc23)C(=O)N[C@@H](CO)C(N)=O)NC(=O)[C@H](Cc2ccccc2)NC(=O)[C@H](CCCCN)NC(=O)[C@H]([C@@H](C)CC)NC(=O)[C@H](C(C)C)NC(=O)[C@H]([C@@H](C)O)NC(=O)[C@H](CC(=O)O)NC(=O)[C@H]([C@@H](C)O)NC(=O)[C@H](Cc2c[nH]c3ccccc23)NC(=O)[C@H](CCCNC(=N)N)NC(=O)[C@H](CC(N)=O)NC(=O)[C@H]([C@@H](C)O)NC1=O` ({CH2CO}-YITNRWTDTVIKFCLWS-NH2; thioether N-14): in series [2], the Kd came to 2 nM. The IC50 in series [1] was found to be 104 nM. In the case of Ac-YSILFDKYYAIPC-NH2, the half-maximal inhibitory concentration (IC50) in series [1] amounted to 69 nM.

With Ac-YSILADKYYSIPC-NH2, the IC50 in series [1] is greater than 5000 nM. The same measure, in the same setting: with Ac-YSILFDKYYSAPC-NH2 the figure was 999 nM. Take `CC[C@H](C)[C@@H]1NC(=O)[C@H](CC(=O)O)NC(=O)CSC[C@@H](C(N)=O)NC(=O)[C@H](CO)NC(=O)[C@H](Cc2ccccc2)NC(=O)[C@H](Cc2ccc(O)cc2)NC(=O)[C@@H]2CCCN2C(=O)[C@H]([C@@H](C)CC)NC(=O)[C@H](Cc2ccc(O)cc2)NC(=O)[C@H](CO)NC(=O)[C@H](CC(C)C)NC(=O)[C@H](Cc2ccc(O)cc2)NC(=O)[C@H](CCCCN)NC1=O` ({CH2CO}-DIKYLSYIPYFSC-NH2; thioether N-13): the outcome in series [1] was inactive. In the case of Ac-YSILFDAYYDSIPC-NH2, in series [1], the IC50 turned out to be 95 nM. Consider `CC(C)C[C@@H]1NC(=O)[C@H](CCCNC(=N)N)NC(=O)[C@H](Cc2ccc(O)cc2)NC(=O)CSC[C@@H](C(N)=O)NC(=O)[C@@H]2CCCN2C(=O)[C@H](CC(C)C)NC(=O)[C@H](CCCCN)NC(=O)[C@H](Cc2ccc(O)cc2)NC(=O)[C@H]([C@@H](C)O)NC(=O)[C@H](CCC(N)=O)NC(=O)[C@H](Cc2ccccc2)NC(=O)[C@H](Cc2ccccc2)NC(=O)[C@H](Cc2c[nH]c3ccccc23)NC1=O` ({CH2CO}-YRLWFFQTYKLPC-NH2; thioether N-13), for which, in series [2], the Kd was determined as 10 nM. Besides, the IC50 in series [1] is 78 nM. Regarding Ac-YSILFDKYYSIAC-NH2, the IC50 in series [1] was found to be 114 nM.
